Consider 47 molecules from US5942532A, “2-substituted phenyl-benzimidazole antibacterial agents” (Ortho Pharmaceutical Corporation, priority 1997, dated 1999).

The assay deals with T1, Kinase A and Spo0F (Bacillus subtilis, UniProt P16497).
T1 construct: made in house; host or cells: recombinant E. coli
T1 sequence (P16497 1-606): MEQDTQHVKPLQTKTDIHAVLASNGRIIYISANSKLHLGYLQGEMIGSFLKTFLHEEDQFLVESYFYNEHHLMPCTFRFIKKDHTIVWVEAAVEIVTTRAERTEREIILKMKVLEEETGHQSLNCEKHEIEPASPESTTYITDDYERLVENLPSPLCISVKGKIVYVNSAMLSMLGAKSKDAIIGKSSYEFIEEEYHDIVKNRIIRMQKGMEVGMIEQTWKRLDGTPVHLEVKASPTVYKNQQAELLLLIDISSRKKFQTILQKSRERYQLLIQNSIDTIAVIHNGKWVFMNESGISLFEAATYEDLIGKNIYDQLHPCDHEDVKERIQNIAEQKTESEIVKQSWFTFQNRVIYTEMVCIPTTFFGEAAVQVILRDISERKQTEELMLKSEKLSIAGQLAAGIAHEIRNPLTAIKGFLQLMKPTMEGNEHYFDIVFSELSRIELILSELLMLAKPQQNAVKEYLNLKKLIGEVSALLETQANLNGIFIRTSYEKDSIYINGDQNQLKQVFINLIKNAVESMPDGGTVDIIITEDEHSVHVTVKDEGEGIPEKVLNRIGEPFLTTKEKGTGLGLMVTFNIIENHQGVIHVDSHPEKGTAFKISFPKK
Briefly: Autophosphorylation of Kinase A and Transphosphorylation of Spo0F Assay (HPK in vitro assay). It is filed as biochemical. Here is the method: Autophosphorylation of Kinase A and Transphosphorylation of Spo0F Assay
To study the effect of the compounds of the present invention on the signal transduction process in bacteria, the inhibiting effect of the compounds on the sporulation operon proteins Kinase A and Spo0F was examined. Specifically, the inhibition of autophosphorylation of Kinase A and the transphosphorylation of Spo0F was determined in the following assays. The Spo0F response regulator is the primary substrate for phosphorylation by the protein kinase, Kin A, involved in the sporulation process in bacteria. See D. Burbulys, K. A. Trach, J. A. Hoch, Cell, 64, 545-552 (1991). Spo0F and KinA were prepared from recombinant E. coli overexpressing the proteins (J. Cavanagh et al, Amino Acids, 6, 131-140 (1994) and references therein).
The following stock reagents were either prepared and used promptly or stored at the indicated temperature:
8×Salts: 2 M KCl (5 mL), 1 M MgCl2 (800 mL), 1 M CaCl2 (100 mL), 10 mg/mL phenylmethylsulfonyl fluoride (200 mL), 1 M dithioreitol (50 mL), 0.25 M Na2 EDTA (32 mL) and H2 O 3.82 mL (-20° C.)
5×Loading Dye: 0.5M TRIS-HCl, pH 6.8 (7.5 mL), 10% SDS (2 mL) 0.1% bromophenol blue (0.5 mL), 100% glycerol (3 mL) and 12.5 M 2-mercaptoethanol (0.3 mL)
1-1.3 mg/mL KinA: 15 mM TRIS-HCl, pH 8.0, 6 mM KCl; 4 mM 2-mercaptoethanol;40% glycerol (-20° C.)
1 mg/mL Spo0F: 17.5 mM TRIS-HCl, pH 8.0; 0.7 mM KCl; 0.7 mM MgCl2; 0.7 mM CaCl2; 5 mM 2-mercaptoethanol; 30% glycerol (-20° C.)
5% Stacking Gel: 40% 29:1 acrylamide:bis acrylamide (1.25 mL), 0.5 M TRIS-HCl, pH 6.8 (2.5 mL), 10% SDS (0.1 mL), D-H2 O (6.15 mL) 10% ammonium persulfate (100 mL) and TEMED (25 mL)
SDS Running Buffer: TRIS-BASE (3.02 g), glycine (14.4 g), SDS (1 g), D-H2 O (to 1 L)
The reaction mixture was prepared from 8×Salts (87 μL), 1M TRIS, pH 8 (118 μL), 50% glycerol (63 μL), Spo0F (14.1 μL) and KinA (7.0 μL). Microcentrifuge tubes were charged with the reaction mixture (18.5 μL) and a 1.0 mM solution of the test compound in 5% DMSO (18.5 μL), and incubated for 15 min on ice. 100 mM ATP solution (3.0 μl, containing 625 μCi [^32 P]ATP) was added, and the mixture left for 10 minutes at room temperature. The reaction was quenched with 5× loading dye (10 μL per tube) and the samples were loaded on a prepared 5% Stacking Gel, or stored on dry ice until ready for use. The prepared wells were filled with SDS Running Buffer, samples were loaded into the wells, and 80 volts were applied to the gel until the dye front reached the bottom of the stacking gel. The voltage was then increased to 250 volts until electrophoresis was complete. Radioactive bands in the gel corresponding to phosphorylated KinA and Spo0F were imaged and quantitated with a phosphoimager.
If either enzyme was inhibited (as evidenced by the absence of labelled protein in the developed gel), an IC50 was calculated by running the assay with a range of inhibitor concentrations from 1 to 500 μM. After electrophoresis of the reaction mixtures, percent inhibition was determined by measuring the concentration of radioactive phosphorus with a phosphoimager and calculating the values using a software program (BioRad Molecular Analyst).

[1] abbreviates: Table 1, KinA/Spo0F phosphorylation, in µM.
The mark [2] stands for this setting: Table 2, KinA/Spo0F phosphorylation, in µM.
Where [3] appears, read: Table 3, KinA/Spo0F phosphorylation, read-out: IC50.
Where [4] appears, read: Table 4, KinA/Spo0F phosphorylation, read-out: IC50.
[5] abbreviates: Table 5, KinA/Spo0F phosphorylation, in µM.

The structures appear in SMILES notation. Like-named read-outs stand apart in the source and are kept apart here.

In the case of `CC(C)(C)c1cccc(-c2nc3ccc(C(=N)N)cc3[nH]2)c1O` [Example 34], under setting [1], the IC50 turned out to be 4.

Turning to `CC(C)(C)c1ccc(O)c(-c2nc3ccc(C(=N)N)cc3[nH]2)c1` [Example 35], the IC50 (Table 1, KinA/Spo0F phosphorylation, read-out: IC50) came to 64 µM.

Regarding `N=C(N)c1ccc2nc(-c3cc(Cl)cc(Cl)c3O)[nH]c2c1` [Example 36], under setting [1], the IC50 was 155.

Turning to `COc1cc(Br)c(O)c(-c2nc3ccc(C(=N)N)cc3[nH]2)c1` [Example 37], the IC50 under setting [1] is given as 171.

Take `CCN(CC)c1ccc(-c2nc3ccc(C(=N)N)cc3[nH]2)c(O)c1` [Example 38]: under setting [1], the IC50 is reported as 51.

Turning to `N=C(N)c1ccc2nc(-c3cc(-c4ccccc4)cc(-c4ccccc4)c3O)[nH]c2c1` [Example 39], under setting [1], the IC50 is reported as 23.

For the molecule `N=C(N)c1ccc2nc(-c3cc([N+](=O)[O-])cc(Br)c3O)[nH]c2c1` [Example 40], the IC50 under setting [1] is listed as 199.

Under setting [1], `CC(C)(C)c1cc(-c2nc3ccc(C(=N)N)cc3[nH]2)c(OCC(=O)O)c(C(C)(C)C)c1` [Example 42] had an IC50 of 199.

Take `CC(C)(C)c1csc(-c2ccc(-c3nc4ccc(C(=N)N)cc4[nH]3)cc2)n1` [Example 43]: the IC50 under setting [1] is reported as 40.2.

Turning to `N=C(N)c1ccc2nc(-c3ccc(Oc4c([N+](=O)[O-])cc(C(F)(F)F)cc4[N+](=O)[O-])cc3)[nH]c2c1` [Example 45], the IC50 under setting [1] came out at 28.

Molecule `Cn1c(-c2ccc(Oc3ccccc3)cc2)nc2ccc(C(=N)N)cc21` [Example 46] showed an IC50 under setting [2] of 44.

In the case of `N=C(N)c1ccc(Oc2ccc(-c3nc4ccc(C(=N)N)cc4[nH]3)cc2)cc1` [Example 47], under setting [2], the IC50 is recorded as 131.

Regarding `N=C(N)c1ccc2nc(-c3ccc(Oc4ccccc4)cc3)[nH]c2c1` [Example 48], the IC50 (Table 2, KinA/Spo0F phosphorylation, read-out: IC50) worked out at 42 µM.

For `N=C(N)c1ccc2nc(-c3ccc(Oc4ccc(Cl)cc4[N+](=O)[O-])cc3)[nH]c2c1` [Example 49], the IC50 under setting [2] came out at 29.2.

As to `N=C(N)c1ccc2nc(-c3ccc(Oc4ccc([N+](=O)[O-])cc4)cc3)[nH]c2c1` [Example 50], the IC50 under setting [2] is 31.7.

Molecule `N=C(N)c1ccc2nc(-c3ccc(Oc4ccc(N)cc4)cc3)[nH]c2c1` [Example 51] came in with an IC50 under setting [2] of 140.6.

`CCOC(=O)c1ccc(Oc2ccc(-c3nc4ccc(C(=N)N)cc4[nH]3)cc2)cc1` [Example 52]: the IC50 under setting [2] turned out to be 56.

For the molecule `COc1cc(Oc2ccc(-c3nc4ccc(C(=N)N)cc4[nH]3)cc2)cc(OC)c1OC` [Example 53], the IC50 under setting [2] came to 28.7.

In turn, `COc1ccc(Oc2ccc(-c3nc4ccc(C(=N)N)cc4[nH]3)cc2)cc1` [Example 54] showed an IC50 under setting [2] of 17.7.

Molecule `COc1cc(OC)cc(Oc2ccc(-c3nc4ccc(C(=N)N)cc4[nH]3)cc2)c1` [Example 55] had an IC50 under setting [2] of 59.2.

For `CC(C)(C)c1ccc(Oc2ccc(-c3nc4ccc(C(=N)N)cc4[nH]3)cc2)cc1` [Example 56], the IC50 under setting [2] was 66.5.

Consider `N=C(N)c1ccc2nc(-c3ccc(Oc4ccc([N+](=O)[O-])c([N+](=O)[O-])c4)cc3)[nH]c2c1` [Example 57], for which the IC50 under setting [2] was 31.6.

Regarding `N=C(N)c1ccc2[nH]c(-c3ccc(Oc4ccc(N)c(N)c4)cc3)nc2c1` [Example 58], under setting [2], the IC50 is reported as 31.5.

In turn, `N=C(N)c1ccc2[nH]c(-c3ccc(Oc4ccc(Cl)cc4)cc3)nc2c1` [Example 59] had an IC50 under setting [2] of 13.9.

Turning to `N=C(N)c1ccc2[nH]c(-c3ccc(Oc4ccc(Cl)c(Cl)c4)cc3)nc2c1` [Example 60], the IC50 under setting [2] is listed as 11.4.

Regarding `N=C(N)c1cc([N+](=O)[O-])c2[nH]c(-c3ccc(Oc4ccccc4)cc3)nc2c1` [Example 61], the IC50 under setting [2] is given as 58.

Molecule `N=C(N)c1cc(N)c2[nH]c(-c3ccc(Oc4ccccc4)cc3)nc2c1` [Example 62] showed an IC50 under setting [2] of 19.

On to `N=C(N)c1ccc2[nH]c(-c3cccc(Oc4ccccc4)c3)nc2c1` [Example 63], for which the IC50 under setting [3] turned out to be 53 µM.

As to `N=C(N)c1ccc2[nH]c(-c3cccc(Oc4cccc(C(F)(F)F)c4)c3)nc2c1` [Example 64], the IC50 under setting [3] was 48 µM.

Take `Cc1ccc(Oc2cccc(-c3nc4cc(C(=N)N)ccc4[nH]3)c2)cc1` [Example 65]: under setting [3], the IC50 was 33 µM.

On to `N=C(N)c1ccc2[nH]c(-c3cccc(Oc4cc(Cl)cc(Cl)c4)c3)nc2c1` [Example 66], for which the IC50 under setting [3] is given as 32 µM.

Turning to `N=C(N)c1ccc2[nH]c(-c3cccc(Oc4ccc(Cl)c(Cl)c4)c3)nc2c1` [Example 67], the IC50 under setting [3] was 32 µM.

As to `CC(C)(C)c1ccc(Oc2cccc(-c3nc4cc(C(=N)N)ccc4[nH]3)c2)cc1` [Example 68], the IC50 under setting [3] is on record as 31.6 µM.

Regarding `N=C(N)c1ccc2[nH]c(-c3cccc(Oc4ccc(Cl)cc4)c3)nc2c1` [Example 69], the IC50 under setting [3] is reported as 28 µM.

Consider `COc1ccc(Oc2cccc(-c3nc4cc(C(=N)N)ccc4[nH]3)c2)cc1` [Example 70], for which the IC50 under setting [3] stood at 69.2 µM.

Consider `N=C(N)c1ccc2nc(-c3ccc4oc5ccccc5c4c3)[nH]c2c1` [Example 71], for which, under setting [4], the IC50 was 17.3 µM.

Take `N=C(N)c1ccc2nc(-c3ccc4c(c3)Cc3ccccc3-4)[nH]c2c1` [Example 72]: the IC50 under setting [4] is 64.3 µM.

With `CCn1c2ccccc2c2ccc(-c3nc4ccc(C(=N)N)cc4[nH]3)cc21` [Example 73], the IC50 under setting [4] worked out at 22.0 µM.

With `N=C(N)c1ccc2nc(-c3ccc4ccccc4c3)[nH]c2c1` [Example 74], the IC50 under setting [4] is listed as 120 µM.

On to `N=C(N)c1ccc2nc(-c3ccc4ccccc4c3O)[nH]c2c1` [Example 75], for which the IC50 under setting [4] is 127 µM.

Consider `N=C(N)c1ccc2nc(-c3cc4c5c(c3)CCCN5CCC4)[nH]c2c1` [Example 76], for which the IC50 under setting [4] was 85 µM.

`N=C(N)c1ccc2nc(-c3cc4c5c(c3O)CCCN5CCC4)[nH]c2c1` [Example 77]: under setting [4], the IC50 was 18.5 µM.

With `CN1c2ccccc2C(C)(C)C12C=Cc1cc(-c3nc4ccc(C(=N)N)cc4[nH]3)ccc1O2` (centres unmarked) [Example 78], the IC50 under setting [4] was found to be 114 µM.

Take `N=C(N)c1ccc(Oc2ccc(-c3nc4ccccc4[nH]3)cc2)cc1` [Example 79]: the IC50 under setting [5] is recorded as 241.

With `N=C(N)c1ccc2nc(-c3ccc(Oc4ccc5[nH]cnc5c4)cc3)[nH]c2c1` [Example 80], the IC50 under setting [5] is 94.

As to `N=C(N)c1ccc2nc(-c3ccc(N4CCN(c5ccccc5)CC4)cc3)[nH]c2c1` [Example 81], the IC50 under setting [5] is 26.

Under setting [5], `N=C(N)Cn1c(-c2ccc(N(c3ccccc3)c3ccccc3)cc2)nc2ccc(C(=N)N)cc21` [Example 82] showed an IC50 of 22.
